Test results as given in patent US20230053540A1, “TREATMENT OF LIVER INJURY” (Massachusetts Institute of Technology, priority 2019, published 2023).

Tested on: hepatocytes
Assay: Seq-Well scRNA-Seq of hepatocytes after APAP overdose (signature scores, DEG vs untreated)
Format: in vivo, mouse
Details: A96 vs untreated (UT)

CC(=O)Nc1ccc(O)cc1 [APAP, acetaminophen]
Herpud1 avg_logFC: 0.3333 | Herpud1 pct.1: 0.9 | Hhex avg_logFC: 0.3209 | Hhex pct.1: 0.543 | Hmgcl avg_logFC: 0.353 | Hmgcl pct.1: 0.871 | Hmgcs1 avg_logFC: 0.2967 | Hmgcs1 pct.1: 0.858 | Hmgcs2 avg_logFC: 0.4234 | Hmgcs2 pct.1: 0.996 | Hnf4a avg_logFC: 0.2824 | Hnf4a pct.1: 0.858 | Hpgd avg_logFC: 0.3398 | Hpgd pct.1: 0.588 | Hpx avg_logFC: −0.264 | Hpx pct.1: 0.998 | Hrg avg_logFC: 0.4095 | Hrg pct.1: 0.923 | Hsd3b5 avg_logFC: −0.7981 | Hsd3b5 pct.1: 0.25 | Hsd17b7 avg_logFC: 0.3056 | Hsd17b7 pct.1: 0.56 | Hsd17b10 avg_logFC: 0.3092 | Hsd17b10 pct.1: 0.841 | Hspa8 avg_logFC: 0.4257 | Hspa8 pct.1: 0.905 | Igfbp4 avg_logFC: 0.4189 | Igfbp4 pct.1: 0.964 | Ildr2 avg_logFC: 0.2509 | Ildr2 pct.1: 0.356 | Insig2 avg_logFC: 0.3594 | Insig2 pct.1: 0.928 | Iqgap2 avg_logFC: 0.2645 | Iqgap2 pct.1: 0.799 | Kif1b avg_logFC: 0.3909 | Kif1b pct.1: 0.686 | Lcat avg_logFC: 0.3294 | Lcat pct.1: 0.886 | Lifr avg_logFC: −0.4875 | Lifr pct.1: 0.556 | Lipa avg_logFC: 0.4376 | Lipa pct.1: 0.791 | Lpgat1 avg_logFC: 0.275 | Lpgat1 pct.1: 0.671 | Lpin2 avg_logFC: 0.2841 | Lpin2 pct.1: 0.781 | Lrrc58 avg_logFC: 0.2641 | Lrrc58 pct.1: 0.543 | Man2a1 avg_logFC: 0.3324 | Man2a1 pct.1: 0.737 | Maob avg_logFC: 0.2722 | Maob pct.1: 0.708 | Mat1a avg_logFC: 0.9328 | Mat1a pct.1: 1 | Mettl7b avg_logFC: 0.3784 | Mettl7b pct.1: 0.949 | Mfsd2a avg_logFC: 0.3802 | Mfsd2a pct.1: 0.41 | Mia3 avg_logFC: 0.3563 | Mia3 pct.1: 0.81 | Mt1 avg_logFC: 0.638 | Mt1 pct.1: 0.839 | Mt2 avg_logFC: 0.3136 | Mt2 pct.1: 0.548 | Mtdh avg_logFC: 0.321 | Mtdh pct.1: 0.649 | Mttp avg_logFC: 0.2755 | Mttp pct.1: 0.816 | Mup3 avg_logFC: −0.4098 | Mup3 pct.1: 1 | Mup5 avg_logFC: −1.266 | Mup5 pct.1: 0.538 | Mup6 avg_logFC: −2.021 | Mup6 pct.1: 0.778 | Mup7 avg_logFC: −1.145 | Mup7 pct.1: 0.938 | Mup8 avg_logFC: −0.7871 | Mup8 pct.1: 0.067 | Mup9 avg_logFC: −1.818 | Mup9 pct.1: 0.619 | Mup11 avg_logFC: −1.559 | Mup11 pct.1: 0.905 | Mup12 avg_logFC: −0.8331 | Mup12 pct.1: 0.571 | Mup15 avg_logFC: −1.239 | Mup15 pct.1: 0.156 | Mup16 avg_logFC: −1.119 | Mup16 pct.1: 0.567 | Mup17 avg_logFC: −1.889 | Mup17 pct.1: 0.98 | Mup18 avg_logFC: −1.297 | Mup18 pct.1: 0.928 | Mup19 avg_logFC: −1.258 | Mup19 pct.1: 0.973 | Mup21 avg_logFC: −0.94 | Mup21 pct.1: 0.676 | Ncl avg_logFC: 0.2809 | Ncl pct.1: 0.731 | Ndrg2 avg_logFC: 0.3802 | Ndrg2 pct.1: 0.985 | Nfe2l1 avg_logFC: 0.2902 | Nfe2l1 pct.1: 0.508 | Nfe2l2 avg_logFC: 0.3048 | Nfe2l2 pct.1: 0.465 | Nfib avg_logFC: 0.2501 | Nfib pct.1: 0.55 | Nr1i3 avg_logFC: 0.3735 | Nr1i3 pct.1: 0.625 | Nucks1 avg_logFC: 0.2509 | Nucks1 pct.1: 0.621 | Nudt7 avg_logFC: −1.14 | Nudt7 pct.1: 0.602 | Pabpc1 avg_logFC: 0.3693 | Pabpc1 pct.1: 0.766 | Palmd avg_logFC: 0.2584 | Palmd pct.1: 0.43 | Pbld1 avg_logFC: 0.2811 | Pbld1 pct.1: 0.723 | Pcbp2 avg_logFC: 0.3113 | Pcbp2 pct.1: 0.621 | Pdia6 avg_logFC: −0.3359 | Pdia6 pct.1: 0.611 | Pdk1 avg_logFC: 0.2561 | Pdk1 pct.1: 0.438 | Pex11a avg_logFC: 0.462 | Pex11a pct.1: 0.7 | Phyh avg_logFC: 0.2541 | Phyh pct.1: 0.998 | Pigr avg_logFC: 0.2754 | Pigr pct.1: 0.957 | Plin5 avg_logFC: 0.2663 | Plin5 pct.1: 0.532 | Pltp avg_logFC: 0.2919 | Pltp pct.1: 0.237 | Pnp1a8 avg_logFC: 0.3083 | Pnp1a8 pct.1: 0.723 | Ppap2b avg_logFC: 0.2573 | Ppap2b pct.1: 0.593 | Ppara avg_logFC: 0.3055 | Ppara pct.1: 0.614 | Ppib avg_logFC: −0.3519 | Ppib pct.1: 0.696 | Ppm1a avg_logFC: 0.276 | Ppm1a pct.1: 0.571 | Ppp2r5a avg_logFC: 0.3493 | Ppp2r5a pct.1: 0.764 | Prkd3 avg_logFC: 0.305 | Prkd3 pct.1: 0.682 | Prlr avg_logFC: 0.3611 | Prlr pct.1: 0.574 | Pten avg_logFC: 0.3025 | Pten pct.1: 0.64 | Ptms avg_logFC: 0.3243 | Ptms pct.1: 0.806 | Ptp4a2 avg_logFC: 0.259 | Ptp4a2 pct.1: 0.691 | Ptplad1 avg_logFC: 0.2783 | Ptplad1 pct.1: 0.654 | Ptprd avg_logFC: 0.2719 | Ptprd pct.1: 0.582 | Pxmp4 avg_logFC: 0.2794 | Pxmp4 pct.1: 0.687 | Rdh7 avg_logFC: 0.2671 | Rdh7 pct.1: 0.995 | Rdh16 avg_logFC: 0.3716 | Rdh16 pct.1: 0.494 | Reep6 avg_logFC: 0.3193 | Reep6 pct.1: 0.891 | Retsat avg_logFC: 0.5333 | Retsat pct.1: 0.957 | Saa1 avg_logFC: −1.157 | Saa1 pct.1: 0.232 | Sc4mol avg_logFC: 0.2814 | Sc4mol pct.1: 0.781 | Sdhc avg_logFC: 0.3181 | Sdhc pct.1: 0.76 | Sec14l2 avg_logFC: 0.2724 | Sec14l2 pct.1: 0.939 | Secisbp2l avg_logFC: 0.2781 | Secisbp2l pct.1: 0.529 | Selenbp2 avg_logFC: −1.258 | Selenbp2 pct.1: 0.612 | Sepp1 avg_logFC: 0.2839 | Sepp1 pct.1: 1 | Serpina1a avg_logFC: −0.2708 | Serpina1a pct.1: 0.991 | Serpina1b avg_logFC: −0.3845 | Serpina1b pct.1: 0.996 | Serpina1c avg_logFC: −0.3176 | Serpina1c pct.1: 0.998 | Serpina1e avg_logFC: −1.134 | Serpina1e pct.1: 0.977 | Serpina3k avg_logFC: −0.3036 | Serpina3k pct.1: 1 | Serpina12 avg_logFC: −0.5326 | Serpina12 pct.1: 0.226 | Serpinf1 avg_logFC: 0.2572 | Serpinf1 pct.1: 0.934 | Sh3glb1 avg_logFC: 0.2538 | Sh3glb1 pct.1: 0.433 | Slc4a4 avg_logFC: 0.4025 | Slc4a4 pct.1: 0.609
